Laboratory results reported in the kinase profiling compilation of Christmann-Franck et al. (2016).
Where “and” joins values, the source holds several entries; their conditions need not be identical. Equal entries are not always repeated. Blank lines part the entries; values can stand above or below the molecule they belong to.

Legend:
Experiment in all cases: radiometric filter-binding kinase assay, Kinase HotSpot
Conditions in all cases: compound 0.5 µM; ATP 10 µM
ABL1 (human) = ABL1 (human) (UniProt P00519)
AXL (human) = AXL (human) (UniProt P30530)
BMX (human) = BMX (human) (UniProt P51813)
BRAF (human) = BRAF (human) (UniProt P15056)
CAMK4 (human) = CAMK4 (human) (UniProt Q16566)
CDK2 CCNA2 (human) = CDK2 CCNA2 (human) (UniProt P24941+P20248)
CDK9 CCNT1 (human) = CDK9 CCNT1 (human) (UniProt P50750+O60563)
CHEK1 (human) = CHEK1 (human) (UniProt O14757)
CHEK2 (human) = CHEK2 (human) (UniProt O96017)
CLK3 (human) = CLK3 (human) (UniProt P49761)
CSK (human) = CSK (human) (UniProt P41240)
DSTYK (human) = DSTYK (human) (UniProt Q6XUX3)
DYRK1B (human) = DYRK1B (human) (UniProt Q9Y463)
EPHA6 (human) = EPHA6 (human) (UniProt Q9UF33)
EPHA7 (human) = EPHA7 (human) (UniProt Q15375)
EPHB3 (human) = EPHB3 (human) (UniProt P54753)
IKBKE (human) = IKBKE (human) (UniProt Q14164)
JAK3 JH1 JH2 (human) = JAK3 JH1 JH2 (human) (UniProt P52333)
KDR (human) = KDR (human) (UniProt P35968)
LCK (human) = LCK (human) (UniProt P06239)
MAP3K7 TAB1 (human) = MAP3K7 TAB1 (human) (UniProt O43318+Q15750)
MAP4K5 (human) = MAP4K5 (human) (UniProt Q9Y4K4)
MAPK14 (human) = MAPK14 (human) (UniProt Q16539)
MINK1 (human) = MINK1 (human) (UniProt Q8N4C8)
MYLK2 (human) = MYLK2 (human) (UniProt Q9H1R3)
MYO3B (human) = MYO3B (human) (UniProt Q8WXR4)
NEK9 (human) = NEK9 (human) (UniProt Q8TD19)
PAK6 (human) = PAK6 (human) (UniProt Q9NQU5)
PAK7 (human) = PAK7 (human) (UniProt Q9P286)
PHKG2 (human) = PHKG2 (human) (UniProt P15735)
PRKACG (human) = PRKACG (human) (UniProt P22612)
PRKD1 (human) = PRKD1 (human) (UniProt Q15139)
PRKG1 (human) = PRKG1 (human) (UniProt Q13976)
PTK6 (human) = PTK6 (human) (UniProt Q13882)
RAF1 (human) = RAF1 (human) (UniProt P04049)
STK38 (human) = STK38 (human) (UniProt Q15208)
TLK2 (human) = TLK2 (human) (UniProt Q86UE8)
TSSK2 (human) = TSSK2 (human) (UniProt Q96PF2)
TTK (human) = TTK (human) (UniProt P33981)
ULK3 (human) = ULK3 (human) (UniProt Q6PHR2)
ZAP70 (human) = ZAP70 (human) (UniProt P43403)

Chain of TSSK2 (human) (Q96PF2 whole entry, looked up): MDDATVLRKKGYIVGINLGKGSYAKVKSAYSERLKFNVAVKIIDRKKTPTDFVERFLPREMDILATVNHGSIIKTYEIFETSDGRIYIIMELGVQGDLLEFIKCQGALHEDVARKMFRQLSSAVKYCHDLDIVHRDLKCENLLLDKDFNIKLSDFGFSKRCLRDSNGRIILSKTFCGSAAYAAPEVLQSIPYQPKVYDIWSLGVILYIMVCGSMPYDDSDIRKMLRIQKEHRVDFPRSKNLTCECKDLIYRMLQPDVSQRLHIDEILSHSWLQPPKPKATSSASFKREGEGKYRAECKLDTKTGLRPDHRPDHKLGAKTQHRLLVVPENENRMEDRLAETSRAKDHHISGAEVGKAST
Chain of PHKG2 (human) (P15735 whole entry, looked up): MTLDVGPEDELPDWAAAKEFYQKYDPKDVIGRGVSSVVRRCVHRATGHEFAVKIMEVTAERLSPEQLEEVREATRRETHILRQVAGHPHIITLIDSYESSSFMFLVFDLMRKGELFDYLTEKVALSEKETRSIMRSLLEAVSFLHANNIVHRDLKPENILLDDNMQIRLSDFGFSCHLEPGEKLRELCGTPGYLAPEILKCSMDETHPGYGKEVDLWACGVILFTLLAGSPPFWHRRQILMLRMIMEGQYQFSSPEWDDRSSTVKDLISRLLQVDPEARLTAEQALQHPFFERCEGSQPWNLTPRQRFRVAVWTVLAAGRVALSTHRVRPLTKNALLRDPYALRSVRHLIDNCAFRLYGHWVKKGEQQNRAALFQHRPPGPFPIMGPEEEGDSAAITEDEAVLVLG
Chain of EPHA7 (human) (Q15375 whole entry, looked up): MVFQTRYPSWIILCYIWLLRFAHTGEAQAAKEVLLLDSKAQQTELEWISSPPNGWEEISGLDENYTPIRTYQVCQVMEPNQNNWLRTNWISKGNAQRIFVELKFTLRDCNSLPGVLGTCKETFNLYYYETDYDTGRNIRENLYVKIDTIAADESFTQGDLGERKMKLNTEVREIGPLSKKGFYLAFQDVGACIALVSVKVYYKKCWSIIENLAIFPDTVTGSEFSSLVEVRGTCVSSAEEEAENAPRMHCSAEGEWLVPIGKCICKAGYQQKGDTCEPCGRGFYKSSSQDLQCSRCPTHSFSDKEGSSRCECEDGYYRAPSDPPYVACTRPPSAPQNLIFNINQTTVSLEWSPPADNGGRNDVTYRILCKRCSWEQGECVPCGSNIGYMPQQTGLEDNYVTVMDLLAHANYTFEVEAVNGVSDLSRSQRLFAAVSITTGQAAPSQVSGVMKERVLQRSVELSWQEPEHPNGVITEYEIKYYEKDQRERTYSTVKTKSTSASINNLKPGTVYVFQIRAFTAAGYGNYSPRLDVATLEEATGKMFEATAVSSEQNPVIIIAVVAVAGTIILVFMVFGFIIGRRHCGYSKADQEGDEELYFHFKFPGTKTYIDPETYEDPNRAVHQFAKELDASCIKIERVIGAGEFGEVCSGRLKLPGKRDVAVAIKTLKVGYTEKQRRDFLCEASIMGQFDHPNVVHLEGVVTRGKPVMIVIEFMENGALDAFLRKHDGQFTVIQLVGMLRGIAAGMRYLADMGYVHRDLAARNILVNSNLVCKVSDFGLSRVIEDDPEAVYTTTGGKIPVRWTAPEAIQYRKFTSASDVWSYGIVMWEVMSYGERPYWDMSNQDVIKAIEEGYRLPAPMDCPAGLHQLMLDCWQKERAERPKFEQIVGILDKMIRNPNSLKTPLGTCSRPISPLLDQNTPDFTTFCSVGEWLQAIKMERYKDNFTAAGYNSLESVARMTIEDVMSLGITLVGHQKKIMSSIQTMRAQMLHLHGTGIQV
Chain of BMX (human) (P51813 whole entry, looked up): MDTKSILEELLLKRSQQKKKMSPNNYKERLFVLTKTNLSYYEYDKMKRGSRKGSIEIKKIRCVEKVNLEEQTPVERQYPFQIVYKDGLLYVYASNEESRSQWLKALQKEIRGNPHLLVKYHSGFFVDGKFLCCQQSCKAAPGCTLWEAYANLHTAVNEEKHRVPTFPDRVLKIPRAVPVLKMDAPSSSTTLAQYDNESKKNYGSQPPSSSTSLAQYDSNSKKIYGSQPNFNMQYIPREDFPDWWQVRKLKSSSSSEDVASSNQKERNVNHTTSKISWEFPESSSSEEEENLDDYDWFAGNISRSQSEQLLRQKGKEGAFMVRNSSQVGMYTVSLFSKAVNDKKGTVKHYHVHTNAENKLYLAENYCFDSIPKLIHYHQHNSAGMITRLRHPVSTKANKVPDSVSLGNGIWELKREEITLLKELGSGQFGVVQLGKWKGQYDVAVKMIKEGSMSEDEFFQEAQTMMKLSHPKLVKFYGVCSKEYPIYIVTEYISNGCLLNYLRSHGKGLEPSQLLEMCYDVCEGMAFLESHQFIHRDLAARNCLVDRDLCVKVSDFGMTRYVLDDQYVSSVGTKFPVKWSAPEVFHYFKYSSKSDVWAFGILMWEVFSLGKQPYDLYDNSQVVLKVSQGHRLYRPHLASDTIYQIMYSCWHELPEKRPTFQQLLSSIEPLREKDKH
Chain of PAK6 (human) (Q9NQU5 whole entry, looked up): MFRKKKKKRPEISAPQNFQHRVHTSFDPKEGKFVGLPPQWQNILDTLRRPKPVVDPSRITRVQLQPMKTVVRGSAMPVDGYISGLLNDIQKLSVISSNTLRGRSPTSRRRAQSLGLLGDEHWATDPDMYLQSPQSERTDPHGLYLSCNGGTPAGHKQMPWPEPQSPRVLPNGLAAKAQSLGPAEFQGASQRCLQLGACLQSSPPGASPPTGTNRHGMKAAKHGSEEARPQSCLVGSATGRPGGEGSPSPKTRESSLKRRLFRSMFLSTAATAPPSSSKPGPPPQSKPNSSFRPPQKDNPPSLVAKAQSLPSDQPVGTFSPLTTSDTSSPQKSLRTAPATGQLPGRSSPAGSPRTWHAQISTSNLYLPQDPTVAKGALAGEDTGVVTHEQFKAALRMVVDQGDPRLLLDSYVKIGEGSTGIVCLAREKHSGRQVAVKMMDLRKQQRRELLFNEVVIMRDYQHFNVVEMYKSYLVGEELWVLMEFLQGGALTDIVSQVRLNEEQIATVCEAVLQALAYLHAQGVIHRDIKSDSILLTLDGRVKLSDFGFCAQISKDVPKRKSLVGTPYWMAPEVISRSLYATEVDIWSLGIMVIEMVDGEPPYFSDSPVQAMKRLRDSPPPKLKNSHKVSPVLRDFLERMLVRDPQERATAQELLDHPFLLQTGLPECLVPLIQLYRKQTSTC
Chain of BRAF (human) (P15056 whole entry, looked up): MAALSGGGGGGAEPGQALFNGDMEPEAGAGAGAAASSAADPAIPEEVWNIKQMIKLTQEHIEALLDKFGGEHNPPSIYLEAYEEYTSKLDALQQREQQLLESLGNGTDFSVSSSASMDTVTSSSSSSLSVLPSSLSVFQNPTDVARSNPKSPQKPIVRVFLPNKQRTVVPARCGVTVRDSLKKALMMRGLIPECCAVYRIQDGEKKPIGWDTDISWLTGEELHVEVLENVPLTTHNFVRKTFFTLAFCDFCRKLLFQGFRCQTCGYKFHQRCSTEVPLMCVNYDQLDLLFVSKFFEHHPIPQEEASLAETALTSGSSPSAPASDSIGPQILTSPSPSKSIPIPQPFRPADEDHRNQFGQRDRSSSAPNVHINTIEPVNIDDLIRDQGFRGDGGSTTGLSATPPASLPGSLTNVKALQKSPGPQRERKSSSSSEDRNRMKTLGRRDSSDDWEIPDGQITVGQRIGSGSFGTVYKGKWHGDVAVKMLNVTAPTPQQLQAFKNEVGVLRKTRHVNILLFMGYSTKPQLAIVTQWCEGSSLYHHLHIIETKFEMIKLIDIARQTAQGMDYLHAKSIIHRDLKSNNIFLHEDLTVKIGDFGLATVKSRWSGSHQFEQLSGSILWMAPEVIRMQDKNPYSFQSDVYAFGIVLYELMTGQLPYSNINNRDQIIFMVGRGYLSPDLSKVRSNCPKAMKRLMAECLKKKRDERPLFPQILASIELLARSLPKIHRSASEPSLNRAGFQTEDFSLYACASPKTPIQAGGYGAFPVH
Chain of ULK3 (human) (Q6PHR2 whole entry, looked up): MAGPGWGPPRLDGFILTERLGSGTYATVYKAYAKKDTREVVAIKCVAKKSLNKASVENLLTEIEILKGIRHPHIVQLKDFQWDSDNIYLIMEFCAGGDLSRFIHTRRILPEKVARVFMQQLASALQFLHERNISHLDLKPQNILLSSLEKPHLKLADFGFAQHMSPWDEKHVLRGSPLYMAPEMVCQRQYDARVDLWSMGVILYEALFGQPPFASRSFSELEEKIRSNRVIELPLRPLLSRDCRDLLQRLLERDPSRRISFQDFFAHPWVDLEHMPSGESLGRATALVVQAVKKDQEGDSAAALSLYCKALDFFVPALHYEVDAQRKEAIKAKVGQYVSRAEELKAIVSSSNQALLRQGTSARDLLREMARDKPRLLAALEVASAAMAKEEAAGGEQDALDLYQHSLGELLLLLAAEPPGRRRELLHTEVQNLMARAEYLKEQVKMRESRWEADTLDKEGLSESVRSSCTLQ
Chain of CHEK1 (human) (O14757 whole entry, looked up): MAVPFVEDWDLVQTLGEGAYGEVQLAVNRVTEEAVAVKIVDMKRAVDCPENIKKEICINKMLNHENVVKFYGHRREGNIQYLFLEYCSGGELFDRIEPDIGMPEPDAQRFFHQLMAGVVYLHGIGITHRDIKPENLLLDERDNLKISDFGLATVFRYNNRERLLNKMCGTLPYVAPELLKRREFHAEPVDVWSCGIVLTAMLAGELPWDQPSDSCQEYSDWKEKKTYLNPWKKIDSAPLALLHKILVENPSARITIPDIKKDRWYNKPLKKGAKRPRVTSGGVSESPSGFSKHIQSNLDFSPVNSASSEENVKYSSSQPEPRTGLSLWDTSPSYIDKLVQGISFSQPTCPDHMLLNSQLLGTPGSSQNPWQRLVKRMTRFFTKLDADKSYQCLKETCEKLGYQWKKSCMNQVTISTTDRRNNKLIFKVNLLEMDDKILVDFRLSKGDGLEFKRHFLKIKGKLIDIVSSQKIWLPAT

residual activity (ABL1 (human)): 96.3% | residual activity (AXL (human)): 106% | residual activity (BMX (human)): 92.9% | residual activity (BRAF (human)): 96.6% | residual activity (CAMK4 (human)): 99% | residual activity (CDK2 CCNA2 (human)): 94.4% | residual activity (CDK9 CCNT1 (human)): 23.3% | residual activity (CHEK1 (human)): 94.6% | residual activity (CHEK2 (human)): 93.9% | residual activity (CLK3 (human)): 88.5% | residual activity (CSK (human)): 93.4% | residual activity (DSTYK (human)): 93.4% | residual activity (DYRK1B (human)): 53.2% | residual activity (EPHA6 (human)): 87.1% | residual activity (EPHA7 (human)): 99.4% | residual activity (EPHB3 (human)): 91% | residual activity (IKBKE (human)): 90.3% | residual activity (JAK3 JH1 JH2 (human)): 106% | residual activity (KDR (human)): 99.7% | residual activity (LCK (human)): 98.3% | residual activity (MAP3K7 TAB1 (human)): 91.5% | residual activity (MAP4K5 (human)): 87.5% | residual activity (MAPK14 (human)): 89.1% | residual activity (MINK1 (human)): 93.3% | residual activity (MYLK2 (human)): 92.8% | residual activity (MYO3B (human)): 96.1% | residual activity (PAK6 (human)): 97.6% | residual activity (PAK7 (human)): 98.9% | residual activity (PHKG2 (human)): 99.5% | residual activity (PRKACG (human)): 101% | residual activity (PRKD1 (human)): 82.4% | residual activity (PRKG1 (human)): 97.5% and 99.4% | residual activity (PTK6 (human)): 46.5% | residual activity (RAF1 (human)): 84% | residual activity (STK38 (human)): 100% | residual activity (TLK2 (human)): 102% | residual activity (TSSK2 (human)): 102% | residual activity (TTK (human)): 80.9% | residual activity (ULK3 (human)): 99.1% | residual activity (ZAP70 (human)): 94.5%
SMILES: N#C/C(=C1/Nc2ccccc2S1)c1ccnc(NCCc2cccnc2)n1
residual activity (NEK9 (human)): 94.4%

SMILES: COc1cc2c(cc1OC)-c1[nH]nc(Nc3cccc(F)c3)c1C2
residual activity (AXL (human)): 96.1% | residual activity (BMX (human)): 74.8% | residual activity (BRAF (human)): 93.8% | residual activity (CAMK4 (human)): 106% | residual activity (CDK2 CCNA2 (human)): 87.5% | residual activity (CDK9 CCNT1 (human)): 97.6% | residual activity (CHEK1 (human)): 92.4% | residual activity (CHEK2 (human)): 96.5% | residual activity (CLK3 (human)): 96.5% | residual activity (CSK (human)): 44.9% | residual activity (DSTYK (human)): 93.3% | residual activity (DYRK1B (human)): 102% | residual activity (EPHA6 (human)): 82.7% | residual activity (EPHA7 (human)): 98% | residual activity (EPHB3 (human)): 97.2% | residual activity (IKBKE (human)): 93.3% | residual activity (JAK3 JH1 JH2 (human)): 98.6% | residual activity (KDR (human)): 98.7% | residual activity (MAP3K7 TAB1 (human)): 94% | residual activity (MAP4K5 (human)): 89% | residual activity (MAPK14 (human)): 94.3% | residual activity (MINK1 (human)): 83.6% | residual activity (MYLK2 (human)): 86.4% | residual activity (MYO3B (human)): 107% | residual activity (NEK9 (human)): 102% | residual activity (PAK6 (human)): 84.8% | residual activity (PAK7 (human)): 93.2% | residual activity (PHKG2 (human)): 121% | residual activity (PRKACG (human)): 102% | residual activity (PRKD1 (human)): 93.6% | residual activity (PRKG1 (human)): 104% and 95.2% | residual activity (PTK6 (human)): 81% | residual activity (STK38 (human)): 113% | residual activity (TLK2 (human)): 103% | residual activity (TSSK2 (human)): 75.1% | residual activity (TTK (human)): 84.1% | residual activity (ULK3 (human)): 96.5% | residual activity (ZAP70 (human)): 95.3%

SMILES: COc1cc2c(Nc3ccc(Br)cc3F)ncnc2cc1OCC1CCN(C)CC1
residual activity (AXL (human)): 55% | residual activity (BMX (human)): 88.4% | residual activity (BRAF (human)): 94.8% | residual activity (CAMK4 (human)): 101% | residual activity (CDK2 CCNA2 (human)): 94.6% | residual activity (CHEK1 (human)): 94.4% | residual activity (CHEK2 (human)): 62.1% | residual activity (CLK3 (human)): 100% | residual activity (CSK (human)): 54.4% | residual activity (DSTYK (human)): 96% | residual activity (DYRK1B (human)): 93% | residual activity (EPHA6 (human)): 3.27% | residual activity (EPHA7 (human)): 31.8% | residual activity (EPHB3 (human)): 77.4% | residual activity (IKBKE (human)): 85.8% | residual activity (JAK3 JH1 JH2 (human)): 96% | residual activity (MAP3K7 TAB1 (human)): 93.9% | residual activity (MAP4K5 (human)): 37.1% | residual activity (MAPK14 (human)): 91.8% | residual activity (MINK1 (human)): 81.5% | residual activity (MYLK2 (human)): 97.1% | residual activity (MYO3B (human)): 84.2% | residual activity (NEK9 (human)): 101% | residual activity (PAK6 (human)): 105% | residual activity (PAK7 (human)): 93.5% | residual activity (PHKG2 (human)): 99.1% | residual activity (PRKACG (human)): 106% | residual activity (PRKD1 (human)): 99.3% | residual activity (PRKG1 (human)): 96.6% and 99.8% | residual activity (PTK6 (human)): 7.28% | residual activity (RAF1 (human)): 81.1% | residual activity (STK38 (human)): 100% | residual activity (TLK2 (human)): 79.7% | residual activity (TSSK2 (human)): 95.9% | residual activity (TTK (human)): 95.1% | residual activity (ULK3 (human)): 105% | residual activity (ZAP70 (human)): 96.8%
